Tests used:
Experiment in all cases: combination Emax (second highest fraction inhibited in the dose matrix, 72 h); higher = more inhibition; extreme values may be limits of the assay
[1] = test system: 8505C (Thyroid Gland Carcinoma)
Outline: (§1)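 Cell lines grown in DMEM/F12 or RPMI with 10% FBS were plated in 1536-well plates and held 24 hours at 37°C, 5% CO2 before 72 hours of exposure to two-drug dose matrices, with DMSO typically at 0.2%. CellTiter-Glo 2.0 luminescence gave viability, which was converted to inhibition. Vehicle wells were set to 0 and blank wells to 1. Combination Emax is the second-highest inhibition in the matrix, and Bliss excess is the observed combination effect minus the expected EA + EB − EA·EB, where EA and EB are the single-agent effects.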

[2] = test system: DAN-G (Pancreatic Carcinoma)
Outline: as §1

[3] = test system: ESO51 (Esophageal Adenocarcinoma)
Outline: as §1

G-361 (Melanoma) = test system: G-361 (Melanoma)
Outline: as §1

[4] = test system: H9 (T-Cell Non-Hodgkin's Lymphoma)
Outline: as §1

[5] = test system: HCC1187 (Breast Carcinoma)
Outline: as §1

[6] = test system: HCC1419 (Breast Carcinoma)
Outline: as §1

[7] = test system: JHH-4 (Hepatocellular Carcinoma)
Outline: as §1

[8] = test system: KMS-12-BM (Plasma Cell Myeloma)
Outline: as §1

[9] = test system: KP-3 (Pancreatic Carcinoma)
Outline: as §1

[10] = test system: MOLM-13 (Acute Myeloid Leukemia)
Outline: as §1

[11] = test system: NCCIT (Other Solid Carcinomas)
Outline: as §1

NCI-H2731 (Mesothelioma) = test system: NCI-H2731 (Mesothelioma)
Outline: as §1

[12] = test system: NCI-H526 (Small Cell Lung Carcinoma)
Outline: as §1

[13] = test system: PC-3 (Prostate Carcinoma)
Outline: as §1

RD (Rhabdomyosarcoma) = test system: RD (Rhabdomyosarcoma)
Outline: as §1

[14] = test system: RPMI-8226 (Plasma Cell Myeloma)
Outline: as §1

[15] = test system: SNU-398 (Hepatocellular Carcinoma)
Outline: as §1

[16] = test system: SUP-B15 (B-Lymphoblastic Leukemia)
Outline: as §1

[17] = test system: T-T (Esophageal Squamous Cell Carcinoma)
Outline: as §1

## COc1cccc(OCCCN)c1-c1cc(Nc2cnc(C#N)cn2)n[nH]1 [Prexasertib] + CCc1c2c(nc3ccc(O)cc13)-c1cc3c(c(=O)n1C2)COC(=O)[C@]3(O)CC [SN-38] (first compound max 1 µM, 7x7, partner max 0.3 µM)
[1]
  combination Emax: 0.854
[2]
  combination Emax: 0.933
[3]
  combination Emax: 0.879
G-361 (Melanoma)
  combination Emax: 0.727
[4]
  combination Emax: 1
[5]
  combination Emax: 0.866
[6]
  combination Emax: 0.402
[7]
  combination Emax: 0.954
[8]
  combination Emax: 1
[9]
  combination Emax: 0.57
[10]
  combination Emax: 1
[11]
  combination Emax: 0.85
NCI-H2731 (Mesothelioma)
  combination Emax: 0.663
[12]
  combination Emax: 1
[13]
  combination Emax: 0.703
RD (Rhabdomyosarcoma)
  combination Emax: 0.958
[14]
  combination Emax: 1
[15]
  combination Emax: 0.725
[16]
  combination Emax: 1
[17]
  combination Emax: 0.971

## CN(C)CCCOc1ccc(-c2ccc3ncc4c(c3c2)n(C2CCOCC2)c(=O)n4C)cn1 [AZD0156] + O=C(c1cc(Cc2n[nH]c(=O)c3ccccc23)ccc1F)N1CCN(C(=O)C2CC2)CC1 [Olaparib] (first compound max 3 µM, partner max 3 µM)
[1]
  combination Emax: 0.392
[2]
  combination Emax: 0.576
[3]
  combination Emax: 0.348
G-361 (Melanoma)
  combination Emax: 0.267
[4]
  combination Emax: 0.445
[5]
  combination Emax: 0.197
[6]
  combination Emax: 0.187
[7]
  combination Emax: 0.22
[8]
  combination Emax: 0.438
[9]
  combination Emax: 0.0919
[10]
  combination Emax: 0.563
[11]
  combination Emax: 0.194
NCI-H2731 (Mesothelioma)
  combination Emax: 0.201
[12]
  combination Emax: 0.408
[13]
  combination Emax: 0.199
RD (Rhabdomyosarcoma)
  combination Emax: 0.238
[14]
  combination Emax: 0.421
[15]
  combination Emax: 0.387
[16]
  combination Emax: 0.675
[17]
  combination Emax: 0.346

## CN(CCO)CC[C@H](CSc1ccccc1)Nc1ccc(S(=O)(=O)NC(=O)c2ccc(N3CCC([C@@H](O)c4ccccc4-c4ccc(Cl)cc4)CC3)cc2)cc1S(=O)(=O)C(F)(F)F [AZD4320] + C1CN(CCC1(C(=O)N[C@@H](CCO)C2=CC=C(C=C2)Cl)N)C3=NC=NC4=C3C=CN4 [Capivasertib] (first compound max 1 µM, 7x7, partner max 3 µM)
[1]
  combination Emax: 0.135
[2]
  combination Emax: 0.507
[3]
  combination Emax: 0.0266
G-361 (Melanoma)
  combination Emax: 0.234
[4]
  combination Emax: 0.986
[5]
  combination Emax: 0.146
[6]
  combination Emax: 0.879
[7]
  combination Emax: 0.0846
[8]
  combination Emax: 1
[9]
  combination Emax: 0.0865
[10]
  combination Emax: 1
[11]
  combination Emax: 0.378
NCI-H2731 (Mesothelioma)
  combination Emax: 0.197
[12]
  combination Emax: 0.929
[13]
  combination Emax: 0.231
RD (Rhabdomyosarcoma)
  combination Emax: 0.575
[14]
  combination Emax: 0.925
[15]
  combination Emax: 0.0802
[16]
  combination Emax: 1
[17]
  combination Emax: 0.199

## Cn1cnc2c(F)c(Nc3ccc(Br)cc3Cl)c(C(=O)NOCCO)cc21 [Selumetinib] + C=CCn1c(=O)c2cnc(Nc3ccc(N4CCN(C)CC4)cc3)nc2n1-c1cccc(C(C)(C)O)n1 [AZD1775] (first compound max 10 µM, partner max 1 µM)
[1]
  combination Emax: 0.425
[2]
  combination Emax: 0.811
[3]
  combination Emax: 0.681
G-361 (Melanoma)
  combination Emax: 0.826
[4]
  combination Emax: 1
[5]
  combination Emax: 0.682
[6]
  combination Emax: 0.0435
[7]
  combination Emax: 0.728
[8]
  combination Emax: 0.916
[9]
  combination Emax: 0.274
[10]
  combination Emax: 1
[11]
  combination Emax: 0.773
NCI-H2731 (Mesothelioma)
  combination Emax: 0.194
[12]
  combination Emax: 0.69
[13]
  combination Emax: 0.165
RD (Rhabdomyosarcoma)
  combination Emax: 0.669
[14]
  combination Emax: 0.438
[15]
  combination Emax: 0.784
[16]
  combination Emax: 0.915
[17]
  combination Emax: 0.301

Source: the supplement of paper PMC11061612
